Test results reported in ChEMBL document CHEMBL1201862, “PubChem BioAssay data set” (2004).
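Where inhibition never reached the appropriate level, the endpoint shown equals the highest concentration tested. Otherwise, values were interpolated linearly from a five-concentration, 48-hour dose response in 96-well plates. GI50 marks 50% less growth.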 The source made the active and inactive calls. Rule as the data show it: active = GI50 up to about 1.1 µM and inactive = higher.

Experiments:
Experiment in all cases: DTP human tumour cell line panel, 48 h
RXF 393 = system: RXF 393
BT-549 = system: BT-549
M14 = system: M14
HOP-92 = system: HOP-92
CAKI-1 = system: CAKI-1
OVCAR-5 = system: OVCAR-5
MDA-MB-231 = system: MDA-MB-231
UACC-257 = system: UACC-257
NCI-H522 = system: NCI-H522
OVCAR-4 = system: OVCAR-4
DU-145 = system: DU-145
MOLT-4 = system: MOLT-4
LOX IMVI = system: LOX IMVI
MCF7 = system: MCF7
MDA-N = system: MDA-N
Malme-3M = system: Malme-3M
ACHN = system: ACHN
NCI-H23 = system: NCI-H23
CCRF-CEM = system: CCRF-CEM
IGROV-1 = system: IGROV-1
NCI/ADR-RES = system: NCI/ADR-RES
PC-3 = system: PC-3
HOP-62 = system: HOP-62
Hs-578T = system: Hs-578T
OVCAR-8 = system: OVCAR-8
HCT-116 = system: HCT-116
SNB-75 = system: SNB-75
A549 = system: A549
SK-MEL-28 = system: SK-MEL-28
HT-29 = system: HT-29
SF-295 = system: SF-295
MDA-MB-435 = system: MDA-MB-435
HCT-15 = system: HCT-15
EKVX = system: EKVX
SF-268 = system: SF-268
SW-620 = system: SW-620
A498 = system: A498
SF-539 = system: SF-539
HL-60 = system: HL-60
TK-10 = system: TK-10
786-0 = system: 786-0
SR = system: SR
RPMI-8226 = system: RPMI-8226
SN12C = system: SN12C
K562 = system: K562
NCI-H226 = system: NCI-H226
SNB-19 = system: SNB-19
SK-MEL-5 = system: SK-MEL-5
NCI-H460 = system: NCI-H460
HCC 2998 = system: HCC 2998
U-251 = system: U-251
OVCAR-3 = system: OVCAR-3
T47D = system: T47D
COLO 205 = system: COLO 205
SK-OV-3 = system: SK-OV-3
UO-31 = system: UO-31
SK-MEL-2 = system: SK-MEL-2
UACC-62 = system: UACC-62
KM12 = system: KM12

SMILES: NC(CO)Cc1c[nH]cn1 (stereo not given)
- GI50 (RXF 393): > 10 µM (inactive)
- GI50 (BT-549): > 100 µM (inactive)
- GI50 (M14): > 100 µM (inactive)
- GI50 (HOP-92): > 10 µM (inactive)
- GI50 (CAKI-1): > 100 µM (inactive)
- GI50 (OVCAR-5): > 100 µM (inactive)
- GI50 (MDA-MB-231): > 100 µM (inactive)
- GI50 (UACC-257): > 100 µM (inactive)
- GI50 (NCI-H522): > 100 µM (inactive)
- GI50 (OVCAR-4): > 10 µM (inactive)
- GI50 (DU-145): > 100 µM (inactive)

SMILES: Nc1nc(Cl)cc(OCC2(CO)CCCCC2)n1
- GI50 (MOLT-4): > 100 µM (inactive)
- GI50 (LOX IMVI): > 100 µM (inactive)
- GI50 (MCF7): 50.5 µM (inactive)
- GI50 (MDA-N): > 100 µM (inactive)
- GI50 (Malme-3M): > 100 µM (inactive)
- GI50 (ACHN): > 100 µM (inactive)
- GI50 (NCI-H23): > 100 µM (inactive)
- GI50 (CCRF-CEM): > 100 µM (inactive)
- GI50 (IGROV-1): > 100 µM (inactive)
- GI50 (NCI/ADR-RES): > 100 µM (inactive)
- GI50 (PC-3): > 100 µM (inactive)
- GI50 (RXF 393): 63.7 µM (inactive)
- GI50 (HOP-62): > 100 µM (inactive)
- GI50 (Hs-578T): > 100 µM (inactive)
- GI50 (OVCAR-8): 96.6 µM (inactive)
- GI50 (HCT-116): > 100 µM (inactive)
- GI50 (SNB-75): 66.1 µM (inactive)
- GI50 (A549): 69.7 µM (inactive)
- GI50 (SK-MEL-28): > 100 µM (inactive)
- GI50 (HT-29): > 100 µM (inactive)
- GI50 (SF-295): > 100 µM (inactive)
- GI50 (MDA-MB-435): > 100 µM (inactive)
- GI50 (HOP-92): 40.7 µM (inactive)
- GI50 (HCT-15): 24.5 µM
- GI50 (EKVX): 84.7 µM (inactive)
- GI50 (SF-268): > 100 µM (inactive)
- GI50 (SW-620): > 100 µM (inactive)
- GI50 (A498): 40.7 µM (inactive)
- GI50 (SF-539): > 100 µM (inactive)
- GI50 (HL-60): 85.7 µM (inactive)
- GI50 (OVCAR-5): > 100 µM (inactive)
- GI50 (TK-10): > 100 µM (inactive)
- GI50 (786-0): > 100 µM (inactive)
- GI50 (SR): > 100 µM (inactive)
- GI50 (RPMI-8226): 60.5 µM (inactive)
- GI50 (SN12C): > 100 µM (inactive)
- GI50 (K562): > 10 µM (inactive)
- GI50 (NCI-H226): > 100 µM (inactive)
- GI50 (SNB-19): > 100 µM (inactive)
- GI50 (SK-MEL-5): 40.9 µM (inactive)
- GI50 (NCI-H460): > 100 µM (inactive)
- GI50 (HCC 2998): 24.8 µM (inactive)
- GI50 (UACC-257): 78.7 µM (inactive)
- GI50 (U-251): 86.5 µM (inactive)
- GI50 (NCI-H522): 53.1 µM (inactive)
- GI50 (OVCAR-4): > 100 µM (inactive)
- GI50 (DU-145): > 100 µM (inactive)
- GI50 (OVCAR-3): > 100 µM (inactive)

SMILES: CN(C)c1ccc(C2CC(=O)CC(c3ccc(N(C)C)cc3)C23C(=O)NC(=S)NC3=O)cc1 (stereo not given)
- GI50 (MOLT-4): > 100 µM (inactive)
- GI50 (T47D): > 100 µM (inactive)
- GI50 (LOX IMVI): > 100 µM (inactive)
- GI50 (MCF7): 86.1 µM (inactive)
- GI50 (MDA-N): > 100 µM (inactive)
- GI50 (Malme-3M): > 100 µM (inactive)
- GI50 (ACHN): > 100 µM (inactive)
- GI50 (NCI-H23): 91.2 µM (inactive)
- GI50 (CCRF-CEM): > 100 µM (inactive)
- GI50 (NCI/ADR-RES): > 100 µM (inactive)
- GI50 (PC-3): > 100 µM (inactive)
- GI50 (RXF 393): 45.7 µM (inactive)
- GI50 (HOP-62): 18 µM (inactive)
- GI50 (COLO 205): > 100 µM (inactive)
- GI50 (Hs-578T): 30.2 µM (inactive)
- GI50 (HCT-116): > 100 µM (inactive)
- GI50 (SNB-75): 14.6 µM (inactive)
- GI50 (A549): > 100 µM (inactive)
- GI50 (SK-MEL-28): > 100 µM (inactive)
- GI50 (HT-29): > 100 µM (inactive)
- GI50 (SF-295): 57.9 µM (inactive)
- GI50 (M14): > 100 µM (inactive)
- GI50 (MDA-MB-435): > 100 µM (inactive)
- GI50 (HOP-92): > 100 µM (inactive)
- GI50 (HCT-15): > 100 µM
- GI50 (EKVX): 55.5 µM (inactive)
- GI50 (SF-268): 33.2 µM (inactive)
- GI50 (SW-620): > 100 µM (inactive)
- GI50 (SK-OV-3): > 100 µM (inactive)
- GI50 (A498): > 100 µM (inactive)
- GI50 (UO-31): > 100 µM (inactive)
- GI50 (SF-539): > 100 µM (inactive)
- GI50 (HL-60): > 100 µM (inactive)
- GI50 (CAKI-1): > 100 µM (inactive)
- GI50 (OVCAR-5): > 100 µM (inactive)
- GI50 (TK-10): > 100 µM (inactive)
- GI50 (786-0): 54.6 µM (inactive)
- GI50 (SR): > 100 µM (inactive)
- GI50 (RPMI-8226): > 100 µM (inactive)
- GI50 (SN12C): > 100 µM (inactive)
- GI50 (K562): > 100 µM (inactive)
- GI50 (SK-MEL-2): 38.8 µM (inactive)
- GI50 (UACC-62): > 100 µM (inactive)
- GI50 (NCI-H226): > 100 µM (inactive)
- GI50 (SNB-19): 71.3 µM (inactive)
- GI50 (MDA-MB-231): 36 µM (inactive)
- GI50 (SK-MEL-5): > 100 µM (inactive)
- GI50 (NCI-H460): > 100 µM (inactive)
- GI50 (HCC 2998): 99.3 µM (inactive)
- GI50 (UACC-257): > 100 µM (inactive)
- GI50 (U-251): 30.6 µM (inactive)
- GI50 (KM12): > 100 µM (inactive)
- GI50 (OVCAR-4): > 100 µM (inactive)
- GI50 (DU-145): > 100 µM (inactive)
- GI50 (OVCAR-3): > 100 µM (inactive)

SMILES: C=C1[C@@H](OC(C)=O)[C@H]2[C@@H](OC(C)=O)[C@@](C)(OC(C)=O)C[C@]2(OC(C)=O)C(=O)[C@@H](C)/C=C/C(C)(C)C(=O)C[C@H]1OC(C)=O
- GI50 (MOLT-4): > 100 µM (inactive)
- GI50 (T47D): > 100 µM (inactive)
- GI50 (LOX IMVI): > 100 µM (inactive)
- GI50 (MCF7): > 100 µM (inactive)
- GI50 (MDA-N): > 100 µM (inactive)
- GI50 (Malme-3M): > 100 µM (inactive)
- GI50 (ACHN): > 100 µM (inactive)
- GI50 (NCI-H23): > 100 µM (inactive)
- GI50 (CCRF-CEM): 60.3 µM (inactive)
- GI50 (IGROV-1): > 100 µM (inactive)
- GI50 (NCI/ADR-RES): 88.1 µM (inactive)
- GI50 (PC-3): > 100 µM (inactive)
- GI50 (RXF 393): > 100 µM (inactive)
- GI50 (HOP-62): > 100 µM (inactive)
- GI50 (COLO 205): 72.3 µM (inactive)
- GI50 (OVCAR-8): > 100 µM (inactive)
- GI50 (HCT-116): > 100 µM (inactive)
- GI50 (SNB-75): > 100 µM (inactive)
- GI50 (A549): > 100 µM (inactive)
- GI50 (SK-MEL-28): > 100 µM (inactive)
- GI50 (HT-29): 36.6 µM (inactive)
- GI50 (SF-295): > 100 µM (inactive)
- GI50 (M14): > 100 µM (inactive)
- GI50 (MDA-MB-435): > 100 µM (inactive)
- GI50 (HOP-92): 79.3 µM (inactive)
- GI50 (HCT-15): > 100 µM
- GI50 (EKVX): 83.9 µM (inactive)
- GI50 (SK-OV-3): > 100 µM (inactive)
- GI50 (UO-31): > 100 µM (inactive)
- GI50 (SF-539): > 100 µM (inactive)
- GI50 (CAKI-1): > 100 µM (inactive)
- GI50 (OVCAR-5): > 100 µM (inactive)
- GI50 (TK-10): > 100 µM (inactive)
- GI50 (786-0): > 100 µM (inactive)
- GI50 (RPMI-8226): > 100 µM (inactive)
- GI50 (SN12C): > 100 µM (inactive)
- GI50 (K562): > 100 µM (inactive)
- GI50 (SK-MEL-2): > 100 µM (inactive)
- GI50 (UACC-62): 83.8 µM (inactive)
- GI50 (NCI-H226): > 100 µM (inactive)
- GI50 (SNB-19): > 100 µM (inactive)
- GI50 (MDA-MB-231): > 100 µM (inactive)
- GI50 (SK-MEL-5): > 100 µM (inactive)
- GI50 (HCC 2998): > 100 µM (inactive)
- GI50 (UACC-257): > 100 µM (inactive)
- GI50 (U-251): > 100 µM (inactive)
- GI50 (NCI-H522): 45.3 µM (inactive)
- GI50 (KM12): > 100 µM (inactive)
- GI50 (OVCAR-4): 35.2 µM (inactive)
- GI50 (DU-145): > 100 µM (inactive)
- GI50 (OVCAR-3): 47.2 µM (inactive)
